From patent US8921569B2, “Rationally improved isoniazid and ethionamide derivatives and activity through selective isotopic substitution” (STC.UNM, priority 2007, dated 2014)

Assays:
M bovis BCG [1] = format: cell-based; conditions: O 1 micrograms per ml, 3 or 4 days after treatment, triplicate cultures
M bovis BCG [2] = format: cell-based; conditions: O 1 micrograms per ml, cultures at day 4 plated out

NN[13C](=O)c1ccncc1 [C13 INH, 4-pyridine-[^13C]carboxylic acid hydrazide]
antimicrobial effects by cultures optical density, compared with 12C isoniazid (M bovis BCG [1]): significant increase in activity
activity by CFU (colony forming units), compared with 12C isoniazid (M bovis BCG [2]): marked expected increase in activity
